Measurements published in PubChem BioAssay AID2060502 (Molecular Pharmacology Branch, DTP, NCI, 2025).

System: 885724-159-R-J1-PDC complex spheroid viability
Assay: Anticancer human tumor 885724-159-R-J1-PDC patient-derived pancreatic adenocarcinoma cell line growth inhibition [GQUAD]
Details: for IC50: curve of first compound; for viability, T/C: stronger effect = lower value
How it was run: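 Tumor cells were grown as complex spheroids with HUVEC endothelial cells and mesenchymal stem cells as stroma. G-quadruplex stabilizers were combined with targeted agents over half-log dilutions from near the clinical Cmax, or from 10 microM.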

[1] = second compound 0.0316 µM, first compound 0.0316 µM
[2] = second compound 0.0316 µM, first compound 0.316 µM
[3] = second compound 0.1 µM, first compound 0.0316 µM
[4] = second compound 0.1 µM, first compound 0.316 µM
[5] = second compound 0.316 µM, first compound 0.0316 µM
[6] = second compound 0.316 µM, first compound 0.316 µM
[7] = second compound 1 µM, first compound 0.0316 µM
[8] = second compound 1 µM, first compound 0.316 µM
[9] = second compound 3.16 µM, first compound 0.0316 µM
[10] = second compound 3.16 µM, first compound 0.316 µM
[11] = second compound 10 µM, first compound 0.0316 µM
[12] = second compound 10 µM, first compound 0.316 µM
[13] = second compound 0.0316 µM, first compound 0.1 µM
[14] = second compound 0.0316 µM, first compound 1 µM
[15] = second compound 0.0316 µM, first compound 3.16 µM
[16] = second compound 0.0316 µM, first compound 10 µM
[17] = second compound 0.1 µM, first compound 0.1 µM
[18] = second compound 0.1 µM, first compound 1 µM
[19] = second compound 0.1 µM, first compound 3.16 µM
[20] = second compound 0.1 µM, first compound 10 µM
[21] = second compound 0.316 µM, first compound 0.1 µM
[22] = second compound 0.316 µM, first compound 1 µM
[23] = second compound 0.316 µM, first compound 3.16 µM
[24] = second compound 0.316 µM, first compound 10 µM
[25] = second compound 1 µM, first compound 0.1 µM
[26] = second compound 1 µM, first compound 1 µM
[27] = second compound 1 µM, first compound 3.16 µM
[28] = second compound 1 µM, first compound 10 µM
[29] = second compound 3.16 µM, first compound 0.1 µM
[30] = second compound 3.16 µM, first compound 1 µM
[31] = second compound 3.16 µM, first compound 3.16 µM
[32] = second compound 3.16 µM, first compound 10 µM
[33] = second compound 10 µM, first compound 0.1 µM
[34] = second compound 10 µM, first compound 1 µM
[35] = second compound 10 µM, first compound 3.16 µM
[36] = second compound 10 µM, first compound 10 µM
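Further: spheroids exposed to agents for seven days before readout.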
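Wherever viability, T/C is given: percent of vehicle control viability where 100% = DMSO wells.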

CCc1c2c(nc3ccc(O)cc13)-c1cc3c(c(=O)n1C2)COC(=O)[C@]3(O)CC + Cc1cnc(CNC(=O)c2c(=O)c3ccc(N4CCCN(C)CC4)nc3n3c2sc2ccccc23)cn1
IC50 (second compound 0.0316 µM): 0.0817 µM
IC50 (second compound 0.1 µM): 0.0418 µM
IC50 (second compound 0.316 µM): 0.0483 µM
IC50 (second compound 1 µM): 0.057 µM
IC50 (second compound 3.16 µM): 0.033 µM
IC50 (second compound 10 µM): 0.0326 µM
viability, T/C (second compound 0.0316 µM, first compound 0.000999 µM): 101%
viability, T/C (second compound 0.0316 µM, first compound 0.00316 µM): 97.1%
viability, T/C (second compound 0.0316 µM, first compound 0.00999 µM): 75.1%
viability, T/C [1]: 66.2%
viability, T/C (second compound 0.0316 µM, first compound 0.0999 µM): 54.1%
viability, T/C [2]: 9.27%
viability, T/C (second compound 0.1 µM, first compound 0.000999 µM): 114%
viability, T/C (second compound 0.1 µM, first compound 0.00316 µM): 90.5%
viability, T/C (second compound 0.1 µM, first compound 0.00999 µM): 68.8%
viability, T/C [3]: 60.4%
viability, T/C (second compound 0.1 µM, first compound 0.0999 µM): 45.2%
viability, T/C [4]: 7.81%
viability, T/C (second compound 0.316 µM, first compound 0.000999 µM): 93.2%
viability, T/C (second compound 0.316 µM, first compound 0.00316 µM): 82.7%
viability, T/C (second compound 0.316 µM, first compound 0.00999 µM): 72.2%
viability, T/C [5]: 54.4%
viability, T/C (second compound 0.316 µM, first compound 0.0999 µM): 42.4%
viability, T/C [6]: 4.89%
viability, T/C (second compound 1 µM, first compound 0.000999 µM): 77.2%
viability, T/C (second compound 1 µM, first compound 0.00316 µM): 78.6%
viability, T/C (second compound 1 µM, first compound 0.00999 µM): 63.8%
viability, T/C [7]: 61.3%
viability, T/C (second compound 1 µM, first compound 0.0999 µM): 41.7%
viability, T/C [8]: 0.87%
viability, T/C (second compound 3.16 µM, first compound 0.000999 µM): 73.9%
viability, T/C (second compound 3.16 µM, first compound 0.00316 µM): 72.1%
viability, T/C (second compound 3.16 µM, first compound 0.00999 µM): 57.8%
viability, T/C [9]: 48.3%
viability, T/C (second compound 3.16 µM, first compound 0.0999 µM): 36.7%
viability, T/C [10]: 0.45%
viability, T/C (second compound 10 µM, first compound 0.000999 µM): 66.5%
viability, T/C (second compound 10 µM, first compound 0.00316 µM): 69.6%
viability, T/C (second compound 10 µM, first compound 0.00999 µM): 53.6%
viability, T/C [11]: 54.8%
viability, T/C (second compound 10 µM, first compound 0.0999 µM): 30.7%
viability, T/C [12]: 0.45%

COc1cc(C2c3cc4c(cc3C(OC3OC5COC(C)OC5C(O)C3O)C3COC(=O)C23)OCO4)cc(OC)c1O (stereo not drawn) + Cc1[nH]c2ccc(F)cc2c1-c1nc2c3cccnc3c3ncccc3c2[nH]1
IC50 (second compound 0.0316 µM): > 10 µM
IC50 (second compound 0.1 µM): > 10 µM
IC50 (second compound 0.316 µM): > 10 µM
IC50 (second compound 1 µM): > 10 µM
IC50 (second compound 3.16 µM): < 0.0316 µM
IC50 (second compound 10 µM): > 10 µM
viability, T/C [1]: 92.8%
viability, T/C [13]: 88.7%
viability, T/C [2]: 93.8%
viability, T/C [14]: 94.9%
viability, T/C [15]: 79.2%
viability, T/C [16]: 88.5%
viability, T/C [3]: 102%
viability, T/C [17]: 117%
viability, T/C [4]: 93.1%
viability, T/C [18]: 103%
viability, T/C [19]: 80.2%
viability, T/C [20]: 80.2%
viability, T/C [5]: 103%
viability, T/C [21]: 87.2%
viability, T/C [6]: 80.7%
viability, T/C [22]: 83.2%
viability, T/C [23]: 79.7%
viability, T/C [24]: 72.3%
viability, T/C [7]: 89.5%
viability, T/C [25]: 69.8%
viability, T/C [8]: 75%
viability, T/C [26]: 69.1%
viability, T/C [27]: 77.8%
viability, T/C [28]: 61%
viability, T/C [9]: 53.2%
viability, T/C [29]: 32.2%
viability, T/C [10]: 45.4%
viability, T/C [30]: 43.7%
viability, T/C [31]: 35.8%
viability, T/C [32]: 26.5%
viability, T/C [11]: 68.3%
viability, T/C [33]: 69.3%
viability, T/C [12]: 70.9%
viability, T/C [34]: 68%
viability, T/C [35]: 70.6%
viability, T/C [36]: 55.4%

O=C(c1cc(Cc2n[nH]c(=O)c3ccccc23)ccc1F)N1CCN(C(=O)C2CC2)CC1 + Cc1cnc(CNC(=O)c2c(=O)c3ccc(N4CCCN(C)CC4)nc3n3c2sc2ccccc23)cn1
IC50 (second compound 0.0316 µM): > 10 µM
IC50 (second compound 0.1 µM): > 10 µM
IC50 (second compound 0.316 µM): > 10 µM
IC50 (second compound 1 µM): > 10 µM
IC50 (second compound 3.16 µM): > 10 µM
IC50 (second compound 10 µM): > 10 µM
viability, T/C [1]: 97.6%
viability, T/C [13]: 96.7%
viability, T/C [2]: 98.6%
viability, T/C [14]: 99.2%
viability, T/C [15]: 87.3%
viability, T/C [16]: 90.8%
viability, T/C [3]: 115%
viability, T/C [17]: 109%
viability, T/C [4]: 105%
viability, T/C [18]: 90.6%
viability, T/C [19]: 84.6%
viability, T/C [20]: 83.5%
viability, T/C [5]: 88%
viability, T/C [21]: 93.7%
viability, T/C [6]: 88.9%
viability, T/C [22]: 85.5%
viability, T/C [23]: 85.5%
viability, T/C [24]: 77%
viability, T/C [7]: 87.8%
viability, T/C [25]: 83.2%
viability, T/C [8]: 78.8%
viability, T/C [26]: 77.7%
viability, T/C [27]: 87%
viability, T/C [28]: 65.3%
viability, T/C [9]: 78.2%
viability, T/C [29]: 80.3%
viability, T/C [10]: 78.2%
viability, T/C [30]: 74%
viability, T/C [31]: 76.2%
viability, T/C [32]: 57.4%
viability, T/C [11]: 71.7%
viability, T/C [33]: 70.7%
viability, T/C [12]: 70.9%
viability, T/C [34]: 73.1%
viability, T/C [35]: 64.8%
viability, T/C [36]: 66.2%

Nc1ccn(C2OC(CO)C(O)C2(F)F)c(=O)n1 (stereo not drawn) + Cc1[nH]c2ccc(F)cc2c1-c1nc2c3cccnc3c3ncccc3c2[nH]1
IC50 (second compound 0.0316 µM): > 10 µM
IC50 (second compound 0.1 µM): > 10 µM
IC50 (second compound 0.316 µM): > 10 µM
IC50 (second compound 1 µM): > 10 µM
IC50 (second compound 3.16 µM): < 0.0316 µM
IC50 (second compound 10 µM): > 10 µM
viability, T/C [1]: 92.8%
viability, T/C [13]: 100%
viability, T/C [2]: 75.2%
viability, T/C [14]: 75.6%
viability, T/C [15]: 75.3%
viability, T/C [16]: 80.8%
viability, T/C [3]: 94.3%
viability, T/C [17]: 82.2%
viability, T/C [4]: 71.4%
viability, T/C [18]: 79.5%
viability, T/C [19]: 73.8%
viability, T/C [20]: 86.6%
viability, T/C [5]: 93.6%
viability, T/C [21]: 89.3%
viability, T/C [6]: 77.3%
viability, T/C [22]: 72.2%
viability, T/C [23]: 79.3%
viability, T/C [24]: 69.3%
viability, T/C [7]: 83.3%
viability, T/C [25]: 67.6%
viability, T/C [8]: 65.8%
viability, T/C [26]: 56.6%
viability, T/C [27]: 70.7%
viability, T/C [28]: 55%
viability, T/C [9]: 43.3%
viability, T/C [29]: 26.1%
viability, T/C [10]: 28.3%
viability, T/C [30]: 22.6%
viability, T/C [31]: 26.1%
viability, T/C [32]: 20.3%
viability, T/C [11]: 67.7%
viability, T/C [33]: 72.9%
viability, T/C [12]: 59%
viability, T/C [34]: 58.4%
viability, T/C [35]: 61.2%
viability, T/C [36]: 62%
